In one data set the target is Acetylcholinesterase (Homo sapiens, UniProt P22303). Briefly: Inhibition of human serum recombinant AChE using acetylthiocholine iodide as a substrate incubated for 20 mins by DTNB reagent based Ellman's method. The data set is classed as cell-free. Background: DTNB colorimetry detects thiols as they appear.
In data set [1] the target is Amyloid-beta precursor protein (Homo sapiens) (UniProt P05067). Nature of the data set: Inhibition of amyloid beta (1 to 40) (unknown origin) self aggregation at 10 uM incubated for 2 hrs by ThT fluorescence assay.
Data set [2] concerns the target T1, Amine oxidase [flavin-containing] B (Homo sapiens, UniProt P27338).
T1 sequence (P27338 whole entry): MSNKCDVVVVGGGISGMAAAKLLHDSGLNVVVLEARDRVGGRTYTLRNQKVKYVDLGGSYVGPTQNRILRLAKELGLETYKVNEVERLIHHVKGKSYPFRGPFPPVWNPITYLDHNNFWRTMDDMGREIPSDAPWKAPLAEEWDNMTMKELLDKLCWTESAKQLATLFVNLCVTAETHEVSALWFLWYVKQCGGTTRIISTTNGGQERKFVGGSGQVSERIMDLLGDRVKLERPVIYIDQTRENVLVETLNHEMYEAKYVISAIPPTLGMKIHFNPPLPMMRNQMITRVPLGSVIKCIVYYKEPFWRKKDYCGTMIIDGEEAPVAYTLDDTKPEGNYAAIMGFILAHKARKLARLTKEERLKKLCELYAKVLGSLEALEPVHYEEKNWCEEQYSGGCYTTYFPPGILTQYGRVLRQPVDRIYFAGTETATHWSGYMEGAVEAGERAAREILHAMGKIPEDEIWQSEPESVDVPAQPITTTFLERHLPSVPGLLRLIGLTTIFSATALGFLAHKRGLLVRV
Nature of the data set: Inhibition of human recombinant MAO-B assessed as reduction in 4-hydroxyquinoline level using kynuramine as a substrate preincubated for 5 mins followed by substrate addition by spectrofluorimetric analysis.

The target in data set [3] is T2, MAO-A (amine oxidase [flavin-containing] A) (Homo sapiens, UniProt P21397).
T2 sequence (P21397 whole entry): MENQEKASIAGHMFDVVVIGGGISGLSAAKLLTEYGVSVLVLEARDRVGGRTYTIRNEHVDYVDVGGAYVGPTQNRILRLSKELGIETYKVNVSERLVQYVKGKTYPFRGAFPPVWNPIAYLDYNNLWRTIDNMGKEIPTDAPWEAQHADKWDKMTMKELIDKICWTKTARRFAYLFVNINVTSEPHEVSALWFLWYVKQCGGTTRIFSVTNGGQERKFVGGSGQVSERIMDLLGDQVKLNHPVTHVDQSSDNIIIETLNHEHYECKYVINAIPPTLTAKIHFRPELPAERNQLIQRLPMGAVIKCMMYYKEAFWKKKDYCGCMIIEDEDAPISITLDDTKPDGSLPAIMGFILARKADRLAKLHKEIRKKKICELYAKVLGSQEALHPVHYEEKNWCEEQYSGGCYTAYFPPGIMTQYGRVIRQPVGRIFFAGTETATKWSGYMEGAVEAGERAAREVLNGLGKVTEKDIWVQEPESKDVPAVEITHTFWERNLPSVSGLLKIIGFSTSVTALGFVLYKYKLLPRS
Briefly: Inhibition of human recombinant MAO-A assessed as reduction in 4-hydroxyquinoline level using kynuramine as a substrate at 10 uM preincubated for 5 mins followed by substrate addition by spectrofluorimetric analysis. The settings on record: probe kynuramine.

In data set [4] the target is Cholinesterase (Homo sapiens) (UniProt P06276). Briefly: Inhibition of human serum recombinant BChE using butyrylthiocholine iodide as a substrate at 10 uM incubated for 20 mins by DTNB reagent based Ellman's method. The class given is cell-free.
The target in data set [5] is T3, Amine oxidase [flavin-containing] A (Homo sapiens, UniProt P21397).
T3 sequence (P21397 whole entry): T2 sequence (P21397 whole entry)
Briefly: Inhibition of human recombinant MAO-A assessed as reduction in 4-hydroxyquinoline level using kynuramine as a substrate preincubated for 5 mins followed by substrate addition by spectrofluorimetric analysis.

The values below come from ChEMBL document CHEMBL5104157, “Design, synthesis and biological evaluation of light-driven on-off multitarget AChE and MAO-B inhibitors” (RSC Med Chem, 2022).

Sequence of Acetylcholinesterase (P22303 whole entry): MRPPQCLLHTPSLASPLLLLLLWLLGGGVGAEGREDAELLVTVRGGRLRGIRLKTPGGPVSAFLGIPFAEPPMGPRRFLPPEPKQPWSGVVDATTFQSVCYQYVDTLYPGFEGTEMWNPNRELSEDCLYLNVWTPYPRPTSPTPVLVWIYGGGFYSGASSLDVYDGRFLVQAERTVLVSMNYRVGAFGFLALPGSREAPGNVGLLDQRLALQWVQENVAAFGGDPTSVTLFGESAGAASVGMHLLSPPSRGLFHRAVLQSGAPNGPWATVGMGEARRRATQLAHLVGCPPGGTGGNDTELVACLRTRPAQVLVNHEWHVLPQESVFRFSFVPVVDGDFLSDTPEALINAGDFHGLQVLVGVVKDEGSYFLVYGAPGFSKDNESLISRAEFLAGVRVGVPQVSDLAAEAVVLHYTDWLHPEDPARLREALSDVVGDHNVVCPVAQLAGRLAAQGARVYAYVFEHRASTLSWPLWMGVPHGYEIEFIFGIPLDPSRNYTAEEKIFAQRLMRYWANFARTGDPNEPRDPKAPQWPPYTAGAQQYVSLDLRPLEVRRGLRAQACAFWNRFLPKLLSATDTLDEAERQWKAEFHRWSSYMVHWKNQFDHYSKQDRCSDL
Sequence of Amyloid-beta precursor protein (Homo sapiens) (P05067 whole entry): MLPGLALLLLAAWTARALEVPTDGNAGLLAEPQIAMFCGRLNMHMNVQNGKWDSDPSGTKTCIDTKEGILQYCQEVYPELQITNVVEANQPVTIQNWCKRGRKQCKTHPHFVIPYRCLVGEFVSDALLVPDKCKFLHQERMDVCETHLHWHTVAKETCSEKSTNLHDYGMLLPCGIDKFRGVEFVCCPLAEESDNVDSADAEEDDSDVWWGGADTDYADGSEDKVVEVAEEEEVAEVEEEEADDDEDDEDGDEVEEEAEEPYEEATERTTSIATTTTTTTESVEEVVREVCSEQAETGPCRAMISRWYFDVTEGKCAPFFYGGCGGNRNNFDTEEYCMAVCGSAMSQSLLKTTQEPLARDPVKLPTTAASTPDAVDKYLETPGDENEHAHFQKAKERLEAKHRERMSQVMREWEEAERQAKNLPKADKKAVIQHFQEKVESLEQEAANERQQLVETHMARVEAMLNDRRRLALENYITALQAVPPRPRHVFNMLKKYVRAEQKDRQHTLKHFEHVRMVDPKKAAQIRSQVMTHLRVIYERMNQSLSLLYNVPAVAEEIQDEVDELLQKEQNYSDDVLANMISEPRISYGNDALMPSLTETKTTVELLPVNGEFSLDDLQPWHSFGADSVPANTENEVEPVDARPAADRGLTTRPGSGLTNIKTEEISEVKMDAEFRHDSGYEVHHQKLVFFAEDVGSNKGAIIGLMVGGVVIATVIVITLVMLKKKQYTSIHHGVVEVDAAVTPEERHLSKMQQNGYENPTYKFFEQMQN
Sequence of Cholinesterase (Homo sapiens) (P06276 whole entry): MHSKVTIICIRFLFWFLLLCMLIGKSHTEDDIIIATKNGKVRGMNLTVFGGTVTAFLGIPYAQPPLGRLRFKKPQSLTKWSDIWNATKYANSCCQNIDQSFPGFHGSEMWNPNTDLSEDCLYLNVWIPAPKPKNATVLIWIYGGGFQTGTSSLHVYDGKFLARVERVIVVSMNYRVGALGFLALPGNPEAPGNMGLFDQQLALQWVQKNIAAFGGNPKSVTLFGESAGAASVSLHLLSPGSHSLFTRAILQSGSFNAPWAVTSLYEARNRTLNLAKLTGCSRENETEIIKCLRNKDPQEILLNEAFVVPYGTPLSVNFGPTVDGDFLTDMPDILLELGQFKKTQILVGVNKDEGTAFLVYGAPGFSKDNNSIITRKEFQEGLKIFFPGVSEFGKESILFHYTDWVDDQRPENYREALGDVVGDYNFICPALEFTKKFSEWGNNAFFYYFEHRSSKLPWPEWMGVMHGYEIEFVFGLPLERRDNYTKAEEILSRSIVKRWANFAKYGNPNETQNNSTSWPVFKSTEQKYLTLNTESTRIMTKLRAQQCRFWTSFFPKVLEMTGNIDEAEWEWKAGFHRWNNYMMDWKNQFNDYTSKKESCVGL

The IC50 is the concentration needed to halve the response being measured. What is called inhibition is the relative decrease from the control value, in per cent. For the molecule `CCN(CC)Cc1ccc(C=C2Cc3cc(OC)c(OC)cc3C2=O)cc1`, the IC50 at Acetylcholinesterase came to 253 nM. Moreover, the inhibition in data set [1] is 56%.
`O=c1c(O)c(-c2ccc(O)c(O)c2)oc2cc(O)cc(O)c12`: the inhibition in data set [1] amounted to 84.4%.
On to `CCN(CC)Cc1ccc(/C=C2\Cc3cc(OC)c(OC)cc3C2=O)cc1`, for which the IC50 stood at 63 nM at Acetylcholinesterase and 783 nM in data set [2]. Further, the inhibition at 10 µM in data set [3] worked out at 49.6%.
As for `CCN(CC)Cc1ccc(/C=C2\Cc3ccccc3C2=O)cc1`, the IC50 at Acetylcholinesterase came to 612 nM; in data set [2], 661 nM. Moreover, the inhibition in data set [4] was 17.8%. For the same molecule, in data set [3], the inhibition at 10 µM is 42.7%.
Turning to `CCN(CC)Cc1ccc(/C=C2\Cc3ccc(OC)cc3C2=O)cc1`, the values for the IC50 (at Acetylcholinesterase; in data set [5]; in data set [2]) were 964 nM, 95 nM and 91 nM, respectively. Moreover, the inhibition in data set [4] came to 14.3%.
On to `CCN(CC)Cc1ccc(C=C2Cc3ccccc3C2=O)cc1`, for which the IC50 at Acetylcholinesterase was found to be 1310 nM. For the same molecule, the inhibition came to 8.1% in data set [1] and 16.2% in data set [4].
Take `CCN(CC)Cc1ccc(/C=C2/Cc3cc(OC)ccc3C2=O)cc1`: the IC50 was 1150 nM at Acetylcholinesterase and 1940 nM in data set [2]. This molecule also had an inhibition in data set [1] of 23.4%. Further, the inhibition at 10 µM in data set [3] was 28.2%.
With `CCN(CC)Cc1ccc(C=C2Cc3ccc(OC)cc3C2=O)cc1`, the IC50 at Acetylcholinesterase was 1100 nM. The inhibition stood at 37.7% in data set [1] and 8.3% in data set [4].
In the case of `CCN(CC)Cc1ccc(/C=C2\Cc3cc(OC)ccc3C2=O)cc1`, on Acetylcholinesterase, the IC50 stood at 113 nM. The same molecule came in with an inhibition in data set [1] of 7.4%. In addition, the inhibition at 10 µM in data set [3] came to 32.8%.
As to `CCN(CC)Cc1ccc(C=C2Cc3cc(OC)ccc3C2=O)cc1`, the IC50 at Acetylcholinesterase was 505 nM. For the same molecule, the inhibition at 10 µM in data set [3] came to 45.1%.
